Measurements as given in patent publication US20070197432A1, “Peptides for preventing, diagnosing and treating animal and/or human leptospirosis” (priority 2002, published 2007).
No end group written: not given here.

Key:
[1] = test system: Leptospira interrogans sl serovar canicola; experiment: Dogs immunized with PP-KLH, canicola challenge: cultures of plasma, urine and kidney samples; format: in vivo, dog
Protocol: (§1) The animals are given a challenge at a rate of one virulent culture of 4 to 6 days. For an immunized batch and a control batch, each animal received, in each eye, 0.3 ml of the culture having a titer of 120 TU (i.e. 2×10^8 leptospires per ml) and, intraperitoneally, 4 ml of the same culture diluted ten-fold.
The presence of leptospires was studied jointly by PCR (PCR specific for pathogenic leptospires) and by culturing, in the urine at D0, D10, D14, D18, D25 and D41 and in the kidney samples from each animal at the end of the trial at […].
Moreover, the bacteriological results were quantified through the setting up of a coefficient: • by immediate culturing. A single live leptospire can give a positive culture. A relative estimation of the bacterial concentration is expressed by means of a coefficient of 3 when a culture has developed in the third serial dilution prepared from the sample. • by PCR on frozen samples. […] A coefficient of 1 was assigned to a PCR with a weak signal and a coefficient of 2 to a strongly positive PCR.

[2] = test system: Leptospira interrogans sl serovar canicola; experiment: Dogs immunized with PP-KLH, canicola challenge: clinical, hematological and biochemical parameters; format: in vivo, dog; conditions: at D4
[3] = test system: Leptospira interrogans sl serovar canicola; experiment: as above; format: in vivo, dog
Protocol: An immunization/challenge protocol was carried out in order to evaluate the protection that can be provided by the PP peptide (SEQ ID No. 1) NH2-coupled to the KLH carrier protein (FIG. 14).
(§2) This construct is administered subcutaneously without adjuvant, with PBS as a negative control (batch 2).
Batch 1: 6 SPF dogs, 2 injections of 250 μg of PP-KLH in 1 ml subcutaneously.
Batch 2: 6 SPF dogs, control.
The two injections were administered subcutaneously, […].
The challenge (CH) was carried out on D0.
as §1
The challenge phase was carried out from D-1 to […], with the challenge on D0.
During this phase, the temperature was measured on D0, D1, D2, D3, D4, D5, D6 and D7.
The hematological parameters were measured on D-1, D3, D7, D10, D14, D15 and D41.
The biochemical parameters were measured on D-1, D3, D7, D10, D14, D18, D25 and D41.

[4] = test system: Leptospira interrogans sl serovar canicola; experiment: Trial 1: gerbils immunized with PP-KLH, 10^−2.5 canicola challenge; format: in vivo, gerbil
Protocol: (§3) An immunization/challenge protocol was carried out in order to evaluate the protection that can be provided by the PP peptide (SEQ ID No. 1) coupled to the KLH protein.
as §2
(§4) Batch 1: 10 gerbils, 2 injections of 30 μg of PP-KLH in 300 μl, subcutaneously.
Batch 2: 10 gerbils, 2 injections of PBS in 300 μl.
(§5) The two injections in a volume of 300 μl were administered subcutaneously, two weeks apart. A challenge by intraperitoneal injection of 0.5 ml of a canicola culture with a titer of 90 to 100 TU (turbidimetry) diluted to 10^−2.5 was administered two weeks after the second injection. • Antigenic response: Monitoring by ELISA of the immune response of the gerbils against the PP peptide

[5] = test system: Leptospira interrogans sl serovar canicola; experiment: Trial 2: gerbils immunized with PP-KLH or PP, 10^−2 canicola challenge; format: in vivo, gerbil; design: Mortality rate / Survival rate: unit not given here
Protocol: An immunization/challenge trial was carried out in order to evaluate the protection that can be provided by the PP peptide (SEQ ID No. 1) coupled or not coupled to the KLH protein.
This construct is administered subcutaneously without adjuvant, and PBS is administered by the same route as the negative control (batch 3). • Batch 1: 12 gerbils, 2 injections of 30 μg of PP-KLH in 300 μl. • Batch 2: 12 gerbils, 2 injections of 30 μg of PP in 300 μl. • Batch 3: 15 gerbils, 2 injections of PBS in 300 A1.
The two injections in a volume of 300 μl were administered subcutaneously, two weeks apart. A challenge by intraperitoneal injection of 0.5 ml of a serovar canicola leptospiral culture with a titer of 90 to 100 TU (turbidimetry) diluted to 10^−2 was administered three weeks after the second injection.

PP peptide = experiment: Trial 1: anti-PP IgG ELISA of gerbils immunized with PP-KLH; format: in vivo, gerbil; conditions: three dilutions observed
Protocol: as §3, §2, §4, §5
The anti-PP antibodies were titered in the gerbil by means of an ELISA technique (described above) with a biotinylated anti-gerbil antiglobulin (BioAtlantic) at 1/3000 and, as visualizing agent, peroxidase-coupled streptavidin (RPN1231, Amersham pharmacia biotech).
For each batch of gerbils, the sera were combined with respect to the various sample dates D0 (before the first immunization), D14 (before the second immunization) and D28 (before the challenge).
The results of the IgG antibody response against the PP peptide, expressed as corrected OD (OD of the treated sera corrected with respect to the OD of the control sera), are given in FIG. 11.

[6] = Accumulation of the two trials, survival

Substance: PP-KLH: PP peptide with cysteine added at the N-terminal position, coupled via sulfo-MBS to KLH carrier protein (keyhole limpet hemocyanin) (KAKPVQKLDDDDDGDDTYKEERHNK; not fully specified (N-terminus))
- positive cultures/dogs ([1]; Plasma, D0): 0/6
- positive cultures/dogs ([1]; Plasma, D3): 6/6
- positive cultures/dogs ([1]; Plasma, D7): 0/6
- positive cultures/dogs ([1]; Urine, D14): 2/6
- positive cultures/dogs ([1]; Urine, D18): 3/6
- positive cultures/dogs ([1]; Urine, D25): 4/6
- renal carrier status at the time of euthanasia ([1]; detected both by culturing and by PCR, both groups): renal carriers
- excretion of leptospires in the urine ([1]; immunized versus control dogs, cultures and PCRs): becomes apparent later, or at a lower level
- p, monocyte depletion observed only in the controls [2]: 0.05
- p, transient leukopenia greater in control than in immunized dogs [2]: < 0.05
- lymphopenia ([2]; significant in the controls): not noted at all
- thrombocytopenia ([3]; after challenge): significantly more pronounced in the controls than in the immunized dogs
- p, difference in temperature, control versus immunized dogs (controls more pronounced febrile peak) ([3]; at D3 and D4): < 0.05
- P, evolution of mean increase in temperature, control versus immunized dogs (not significantly different) ([3]; between D0 and D7): 0.7944
- P, evolution of white blood cells, control versus immunized dogs (not significantly different) ([3]; between D-1 and D41): 0.4407
- p, evolution of mean variation in platelets, control versus immunized dogs (significantly different) ([3]; between D-1 and D41): 0.0412
- mortality following the challenge ([3]; dogs, immunized and control): No mortality
- protection against a canicola challenge in dogs ([3]; overall conclusion): makes it possible to induce protection
- p, tendency for higher urea level in the controls (no significant difference) ([3]; period of acute effect in the kidneys (D0-D10)): < 0.15
- p, urea level in the controls significantly higher ([3]; period of kidney colonization (D10-D41)): < 0.02
- Mortality rate ([4]; 10^−2.5 canicola challenge): 6/10
- Survival rate ([4]; 10^−2.5 canicola challenge): 4/10
- gerbils alive ([4]; 10^−2.5 canicola challenge, D4): 10
- gerbils alive ([4]; 10^−2.5 canicola challenge, D5): 10
- gerbils alive ([4]; 10^−2.5 canicola challenge, D6): 7
- gerbils alive ([4]; 10^−2.5 canicola challenge, D7): 5
- gerbils alive ([4]; 10^−2.5 canicola challenge, D8): 4
- gerbils alive ([4]; 10^−2.5 canicola challenge, D9): 4
- gerbils alive ([4]; 10^−2.5 canicola challenge, D10): 4
- gerbils alive ([4]; 10^−2.5 canicola challenge, D11): 4
- gerbils alive ([4]; 10^−2.5 canicola challenge, D30): 4
- gerbils alive ([4]; 10^−2.5 canicola challenge, before challenge): 10
- gerbils alive ([4]; 10^−2.5 canicola challenge, day of challenge): 10
- Survival rate ([4]; 10^−2.5 canicola challenge, listed as PP peptide coupled to the KLH protein): 4 of the 10
- p, log-rank test versus control ([4]; Experiment 1, survival): <7.10^−2
- Mortality rate ([5]; 10^−2 canicola challenge): 8.3
- Survival rate ([5]; 10^−2 canicola challenge): 91.6
- mortality in the group (dead/number) ([5]; 10^−2 canicola challenge): 1/12
- gerbils at challenge ([5]; 10^−2 canicola challenge, D0): 12
- mortality of gerbils (dead/number) ([5]; 10^−2 canicola challenge, D4): 0/12
- mortality of gerbils (dead/number) ([5]; 10^−2 canicola challenge, D5): 0/12
- mortality of gerbils (dead/number) ([5]; 10^−2 canicola challenge, D6): 0/12
- mortality of gerbils (dead/number) ([5]; 10^−2 canicola challenge, D7): 0/12
- mortality of gerbils (dead/number) ([5]; 10^−2 canicola challenge, D8): 0/12
- mortality of gerbils (dead/number) ([5]; 10^−2 canicola challenge, D9): 1/12
- mortality of gerbils (dead/number) ([5]; 10^−2 canicola challenge, D10): 0/11
- mortality of gerbils (dead/number) ([5]; 10^−2 canicola challenge, D11): 0/11
- mortality of gerbils (dead/number) ([5]; 10^−2 canicola challenge, D12): 0/11
- mortality of gerbils (dead/number) ([5]; 10^−2 canicola challenge, D13): 0/11
- mortality of gerbils (dead/number) ([5]; 10^−2 canicola challenge, D14): 0/11
- mortality of gerbils (dead/number) ([5]; 10^−2 canicola challenge, D15): 0/11
- mortality of gerbils (dead/number) ([5]; 10^−2 canicola challenge, D16): 0/11
- mortality of gerbils (dead/number) ([5]; 10^−2 canicola challenge, D17): 0/11
- mortality of gerbils (dead/number) ([5]; 10^−2 canicola challenge, D28): 0/11
- p, log-rank test versus control [5, 6]: <2.10^−3
- χ^2, log-rank test versus control [5, 6]: 10.1
- p, log-rank test versus control ([5]; Experiment 2, survival): <1.10^−2
- χ^2, log-rank test versus control ([5]; Experiment 2, survival): 6.84
- boost effect of second injection: corrected OD at D28 relative to D14 (PP peptide): more than double
